Test results reported in PubChem BioAssay (NCI).
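Values below derive from 48-hour exposures of cells grown in 96-well plates, with endpoints linearly interpolated between the two concentrations bracketing the appropriate inhibition level. TGI: concentration producing complete growth inhibition.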

Legend:
Experiment in all cases: DTP human tumour cell line panel, 48 h
[1] = system: 786-0 renal
[2] = system: A549 NSCLC
[3] = system: ACHN renal
[4] = system: CAKI-1 renal
[5] = system: HS 578T breast
[6] = system: HT29 colon
[7] = system: KM12 colon
[8] = system: M14 melanoma
[9] = system: MALME-3M melanoma
[10] = system: MDA-MB-435
[11] = system: MDA-N
[12] = system: NCI-H460 lung
[13] = system: OVCAR-4 ovarian
[14] = system: SK-MEL-28 melanoma
[15] = system: SR leukemia
[16] = system: SW-620 colon
[17] = system: TK-10 renal
[18] = system: UACC-257 melanoma
[19] = system: UACC-62 melanoma

Row | SMILES | TGI [1] | TGI [2] | TGI [3] | TGI [4] | TGI [5] | TGI [6] | TGI [7] | TGI [8] | TGI [9] | TGI [10] | TGI [11] | TGI [12] | TGI [13] | TGI [14] | TGI [15] | TGI [16] | TGI [17] | TGI [18] | TGI [19]
1 | Cc1cc(C)n(CN(Cn2nc(C)cc2C)c2ccccc2)n1 | 48.5 µM | > 100 µM | 51.5 µM | > 100 µM | > 100 µM | 35.6 µM | 42.6 µM | 31.1 µM | 52.7 µM | 29.1 µM | 27.6 µM | > 100 µM | 52 µM | 34.7 µM | 14.9 µM | 69.8 µM | > 100 µM | 61 µM | 26.5 µM
2 | Cn1c2c3c(F)c(F)ccc3nc-2cc2ccccc21 | 11.8 µM | 15.4 µM | 4.68 µM | 12.2 µM | > 100 µM | 12.1 µM | 4.76 µM | 5.41 µM | 14.1 µM | 15.7 µM | 15 µM | 12.6 µM | 22.9 µM | 18.3 µM | > 100 µM | 12.4 µM | 3.91 µM | 19.7 µM | 15.8 µM
3 | C=C1CC(CN2CCC(=O)NC2=O)(c2ccccc2)OC1=O (centres undefined) | 15.6 µM | 33 µM | 23.8 µM | 7.57 µM | 34.6 µM | 25.3 µM | 46.8 µM | 12.8 µM | 8.78 µM | 23.6 µM | 26.7 µM | 38.2 µM | 3.55 µM | 27.3 µM | 5.26 µM | 4.78 µM | 19.1 µM | 30.8 µM | 21.3 µM
4 | COC(=O)[C@@H]1Cc2cc(O)c(O)cc2C2(CCN(C)CC2)O1 | > 10 µM | > 10 µM | > 10 µM | > 10 µM | > 10 µM | > 10 µM | > 10 µM | > 10 µM | > 10 µM | > 10 µM | > 10 µM | > 10 µM | > 10 µM | > 10 µM | > 10 µM | > 10 µM | > 10 µM | > 10 µM | > 10 µM
5 | CC1OC(O[C@H]2CC[C@]3(C=O)[C@H]4CC[C@]5(C)[C@H](C6=CC(=O)OC6)CC[C@]5(O)[C@@H]4C=C[C@]3(O)C2)CC(O)C1O (some centres undefined) | 0.296 µM | 0.378 µM | 0.41 µM | 0.428 µM | 4.2 µM | 1.5 µM | 2.76 µM | 0.761 µM | 0.361 µM | 0.701 µM | 0.807 µM | 0.423 µM | 0.838 µM | 1.7 µM | 0.682 µM | 0.902 µM | 1.64 µM | 1.82 µM | 0.807 µM
6 | O=[N+]([O-])c1nccn1CCCNCCCn1ccnc1[N+](=O)[O-] | > 100 µM | > 100 µM | > 100 µM | > 100 µM | > 100 µM | > 100 µM | > 100 µM | > 100 µM | > 100 µM | > 100 µM | > 100 µM | > 100 µM | > 100 µM | > 100 µM | > 100 µM | > 100 µM | > 100 µM | > 100 µM | > 100 µM
7 | CCC1=NC(C(F)(F)F)(C(F)(F)F)N=C(/N=C(/N)N(C)C(C(C)C)P(=O)(OC(C)C)OC(C)C)O1 (centres undefined) | > 100 µM | > 100 µM | > 100 µM | > 100 µM | > 100 µM | > 100 µM | > 100 µM | > 100 µM | > 100 µM | > 100 µM | > 100 µM | > 100 µM | > 100 µM | > 100 µM | > 100 µM | > 100 µM | > 100 µM | > 100 µM | > 100 µM
8 | NC(N)=NS(=O)(=O)c1ccc(NC(=O)c2ccc3[nH]c4ccccc4c(=O)c3c2)cc1 | > 100 µM | > 100 µM | > 100 µM | > 100 µM | > 100 µM | > 100 µM | > 100 µM | > 100 µM | > 100 µM | > 100 µM | > 100 µM | > 100 µM | > 100 µM | > 100 µM | > 100 µM | > 100 µM | > 100 µM | > 100 µM | > 100 µM
9 | CCN(CC)CCNc1ccc(C)c2sc3ccccc3c(=O)c12 | 9.32 µM | 7.13 µM | 11.5 µM | 8.02 µM | 6.63 µM | 3.52 µM | 10.4 µM | 3.36 µM | 9.46 µM | 4.49 µM | 4.04 µM | 5.93 µM | 18.1 µM | 3.51 µM | 6.58 µM | 4.35 µM | 11 µM | 3.18 µM | 3.68 µM
10 | c1ccc(C2=Nc3cccc4cccc(c34)N2)cc1 | > 61.8 µM | > 100 µM | 62.5 µM | > 94.6 µM | > 100 µM | > 100 µM | > 85.1 µM | > 100 µM | > 77.6 µM | > 85.8 µM | > 100 µM | > 100 µM | 42.6 µM | > 100 µM | 52.9 µM | 39.3 µM | > 72 µM | > 100 µM | > 100 µM
11 | COc1ccc2c(CCNS(=O)(=O)c3ccccc3)c(C(C)=O)[nH]c2c1 | > 100 µM | > 100 µM | > 100 µM | > 100 µM | > 100 µM | > 100 µM | > 100 µM | > 100 µM | > 100 µM | > 75.6 µM | > 100 µM | > 100 µM | > 100 µM | > 100 µM | > 100 µM | > 100 µM | > 100 µM | > 57.1 µM | > 100 µM
12 | C=CCn1cnc2c(=O)[nH]c(Nc3ccccc3)nc21 | > 100 µM | > 100 µM | > 100 µM | > 100 µM | > 100 µM | > 100 µM | > 100 µM | > 100 µM | > 100 µM | > 100 µM | > 100 µM | > 100 µM | > 100 µM | > 100 µM | > 100 µM | > 100 µM | > 100 µM | > 100 µM | > 100 µM
13 | O=C1C(Cl)=C(N2CCN(c3ccccn3)CC2)C(=O)c2ncccc21 | 3.12 µM | 19.5 µM | 5.52 µM | 4.01 µM | 5.95 µM | 9.93 µM | 12.2 µM | 3 µM | 3.21 µM | 3.17 µM | 3.51 µM | 13.4 µM | 3.33 µM | 4.38 µM | 3.2 µM | 3.79 µM | 9.75 µM | 3.24 µM | 5.52 µM
14 | CN(C)c1ccc(C2ON=C(c3ccccc3)N2C23CC4CC(CC(C4)C2)C3)cc1 (centres undefined) | > 10 µM | > 10 µM | > 10 µM | > 10 µM | > 10 µM | > 10 µM | > 10 µM | > 10 µM | > 10 µM | > 10 µM | > 10 µM | > 10 µM | > 10 µM | > 10 µM | > 10 µM | > 10 µM | > 10 µM | > 10 µM | > 10 µM
15 | CC(Oc1ccccc1Cl)C(=O)NN1C(=O)CSC1c1ccc(Cl)cc1 (centres undefined) | 28.6 µM | 41 µM | 63 µM | 56.4 µM | 46.3 µM | 39.5 µM | 36.1 µM | 34.5 µM | 93.4 µM | 31.1 µM | 29.8 µM | 59.8 µM | 29.3 µM | 49.2 µM | 22.9 µM | 55.2 µM | 55.9 µM | 45.1 µM | 34 µM
16 | Oc1ccc(-c2cn3cc(C(F)(F)F)ccc3n2)cc1 | > 100 µM | > 100 µM | > 100 µM | > 100 µM | > 100 µM | > 100 µM | > 100 µM | > 100 µM | > 100 µM | > 100 µM | > 100 µM | > 100 µM | > 100 µM | > 100 µM | > 100 µM | > 100 µM | > 100 µM | > 100 µM | > 100 µM
